Experimental data published in patent publication US20260374766A1, “METHODS FOR TREATING CANCER” (Antares Therapeutics, Inc., priority 2022, published 2026).
Read-outs that look alike come from different tables or passages of the source.

What was measured:
[1] = biological target: T1, p53 Y220C mutant protein (amino acid residues 94-293) (Homo sapiens, UniProt P04637, Y220C); experiment: Surface Plasmon Resonance (SPR) assay, Kd_kinetic; type: binding; conditions: SPR; p53 Y220C; read-out: SPR P53 Y220C KD kinetic
T1 construct: p53 Y220C mutant protein (amino acid residues 94-293)
Method in brief: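 Kinetic dissociation constants derived by 1:1 model fit of SPR data acquired at 16 or 20 °C, pH 7.5 Tris/NaCl running buffer with 1% DMSO.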

H1299 p53 Y220C = experiment: Cell Proliferation Assay (CellTiter-Glo, CTG), H1299 p53 Y220C (NClH1299-inducible p53 Y220C); type: cell-based; conditions: Homo sapiens, NCI-H1299, 120 h, NClH1299-inducible p53 Y220C cells, 5 days
Method in brief: (§1)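 Tet-One inducible p53 Y220C or R273H constructs were stably introduced into NCI-H1299 by lentiviral transduction; NUGC3 was used as is. Cells (250-500 per well) were exposed to compound for 5 days, then CellTiter-Glo was added for 10 min at room temperature and IC50 was calculated from luminescence.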

p53 Y220C = p53 Y220C (Homo sapiens, UniProt P04637, Y220C); experiment: Luciferase Reporter Assay (Luc), p53 response element, NClH1299 cells with inducible p53 Y220C; type: cell-based; conditions: 6 hour; for AC50: read-out: Luc P53 Y220C AC50
Method in brief: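 Luminescence readout (One-Glo, 5 min shaking at RT, read at once) after 6 h compound exposure; cells pre-induced 24 h with 0.5 ug/mL doxycycline, 5,000/well.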

H1299 p53 R273H = experiment: Cell Proliferation Assay (CellTiter-Glo, CTG), H1299 p53 R273H (NClH1299-inducible p53 R273H); type: cell-based; conditions: Homo sapiens, NCI-H1299, 120 h, NClH1299-inducible p53 R273H cells, 5 days
Method in brief: as §1

NUGC3 p53 Y220C = experiment: Cell Proliferation Assay (CellTiter-Glo, CTG), NUGC3 p53 Y220C; type: cell-based; conditions: Homo sapiens, NUGC-3, 120 h, NUGC3 cells, 5 days
Method in brief: as §1

[2] = NClH1299 cells with inducible p53 Y220C
[3] = NClH1299 cells with inducible p53 Y220C, 10 uM tool compound as positive control
[4] = luciferase reporter, NClH1299 inducible p53 Y220C

T1 sequence (P04637 94-293, stated change not applied): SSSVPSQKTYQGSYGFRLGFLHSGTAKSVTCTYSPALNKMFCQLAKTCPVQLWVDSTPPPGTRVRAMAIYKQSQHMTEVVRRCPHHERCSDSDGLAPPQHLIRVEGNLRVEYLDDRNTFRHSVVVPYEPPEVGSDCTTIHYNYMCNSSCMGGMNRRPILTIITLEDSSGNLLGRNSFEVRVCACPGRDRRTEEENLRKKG

Structure (SMILES) | Kd [1] [nM] | IC50 (H1299 p53 Y220C) [nM] | AC50 (p53 Y220C; [2]) [nM] | Emax (p53 Y220C; [3]) [%] | IC50 (H1299 p53 R273H) [nM] | IC50 (NUGC3 p53 Y220C) [nM] | IC50 (H1299 p53 Y220C; CellTiter-Glo) [nM] | AC50 (p53 Y220C; [4]) [nM] | Emax (p53 Y220C; [4]) [%] | IC50 (H1299 p53 R273H; CellTiter-Glo) [nM] | IC50 (NUGC3 p53 Y220C; CellTiter-Glo) [nM]
COc1ccc(C(=O)N[C@H]2C[C@H](O)C2)cc1NCC#Cc1cc2c(N[C@@H]3CCN(C)C[C@@H]3F)cccn2c1SC(F)(F)F [Example 482] | < 10 | < 750 | < 750 | > 90 | ≥ 10000 | < 750 | – | – | – | – | –
CNC(=O)c1ccc(NCC#Cc2cc3c(N[C@@H]4CCN(C)C[C@@H]4F)cccn3c2SC(F)(F)F)c(C(=O)NC)c1 [Example 493, 4-{[3-(8-{[(3S,4R)-3-fluoro-1-methylpiperidin-4-yl]amino}-3-[(trifluoromethyl)sulfanyl]indolizin-2-yl)prop-2-yn-1-yl]amino}-N1,N3-dimethylbenzene-1,3-dicarboxamide] | < 10 | < 750 | < 750 | > 90 | ≥ 10000 | < 750 | – | – | – | – | –
CNC(=O)c1ccc(OC2COC2)c(NCC#Cc2cc3c(N[C@@H]4CCNC[C@@H]4F)cccn3c2SC(F)(F)F)n1 [Example 463] | < 10 | < 750 | < 750 | > 90 | ≥ 10000 | < 750 | – | – | – | – | –
CNC(=O)c1ccc(OC)c(NCC#Cc2nc3c(N[C@H]4C[C@@H]5CC[C@H]4N5C)cccn3c2SC(F)(F)F)c1 [Example 248] | < 10 | – | – | – | – | – | 750 to 1500 | 750 to 1500 | 70 to 80 | 5000 to 8000 | 750 to 1500
COc1ccc(C(=O)NC[C@H](C)O)cc1NCC#Cc1cc2c(N[C@@H]3CCN(C)C[C@@H]3F)cccn2c1SC(F)(F)F [Example 404] | < 10 | – | – | – | – | – | < 750 | < 750 | > 90 | 8000 to 10000 | < 750
COc1cc(S(C)(=O)=O)ccc1NCC#Cc1cc2c(N[C@@H]3CCNC[C@@H]3F)cccn2c1SC(F)F [Example 394] | < 10 | – | – | – | – | – | < 750 | < 750 | > 90 | 5000 to 8000 | < 750
COc1ccc(C(=O)NC[C@@H](O)CO)cc1NCC#Cc1cc2c(N[C@@H]3CCN(C)C[C@@H]3F)cccn2c1SC(F)(F)F [Example 462] | < 10 | < 750 | < 750 | > 90 | ≥ 10000 | < 750 | – | – | – | – | –
CNC(=O)c1ccc(OC)c(NCC#Cc2nc3c(N[C@@H]4CCN(C)C[C@@H]4F)cccn3c2SC(F)(F)F)c1F [Example 320] | 10 to 100 | – | – | – | – | – | > 3000 | > 3000 | 70 to 80 | ≥ 10000 | > 3000
CNC(=O)c1ccc(OC)c(NCC#Cc2cc3c(N[C@@H]4CN(C)C[C@@H]4F)nccn3c2SC(F)F)n1 [Example 332] | < 10 | – | – | – | – | – | 1500 to 3000 | 1500 to 3000 | 80 to 90 | ≥ 10000 | > 3000
COc1nc(P(C)(C)=O)ccc1NCC#Cc1cc2c(N[C@@H]3CCN(C)C[C@@H]3F)cccn2c1SC(F)(F)F [Example 390] | < 10 | – | – | – | – | – | < 750 | < 750 | > 90 | 5000 to 8000 | < 750
CCNC(=O)c1ccc(NCC#Cc2nn3c(N[C@@H]4CCN(C)C[C@@H]4F)cccc3c2SC(F)(F)F)c(OC)c1 [Example 316] | < 10 | – | – | – | – | – | < 750 | < 750 | > 90 | ≥ 10000 | < 750
